Tests used:
[1] = tested on: Male spontaneously hypertensive rats (SHR), arterial blood pressure; test: Depressor response after intravenous administration (30 μg/kg), Table 1; type: in vivo, rat; settings: for Duration: '90<' means greater than 90
Description: Male spontaneously hypertensive rats (SHR) which had mean arterial blood pressures higher than 140 mmHg were used for the experiments. Arterial blood pressure was measured through the catherized artery with a pressure transducer (MPU-0.5, manufactured by Nihon Kohden Kabushiki Kaisha). The catheter was inserted into the abdominal aorta via the median coccygcal artery of SHR under light ether anesthesia. The recordings were made on a rectigraph (manufactured by Sanei Sokki Kabushiki Kaisha). The 1,4-dihydropyridine derivatives prepared in the foregoing examples were administered with catheter which was inserted previously into the caudal vein or duodenum at least two hours after the operation. SHR were restrained with wire mesh cage immediately after the operation. Each derivative to be tested was dissolved in 1.5% PVP/ethanol, and then diluted with 0.9% saline or intravenous administration (30 μg/kg), or suspended in 5% gum arabic solution of intraduodenal administration (1 mg/kg).

[2] = tested on: Male spontaneously hypertensive rats (SHR), arterial blood pressure; test: Depressor response after intraduodenal administration (1 mg/kg), Table 2; type: in vivo, rat; settings: for Half-life: '120<' means greater than 120
Description: Arterial blood pressure was measured through the catherized artery with a pressure transducer (MPU-0.5, manufactured by Nihon Kohden Kabushiki Kaisha). The catheter was inserted into the abdominal aorta via the median coccygcal artery of SHR under light ether anesthesia. The recordings were made on a rectigraph (manufactured by Sanei Sokki Kabushiki Kaisha). The 1,4-dihydropyridine derivatives prepared in the foregoing examples were administered with catheter which was inserted previously into the caudal vein or duodenum at least two hours after the operation. SHR were restrained with wire mesh cage immediately after the operation.

[3] = tested on: Male SHR, systolic blood pressure; test: Systolic blood pressure by tail cuff method, oral administration (3 mg/kg), Table 4; type: in vivo, rat; settings: conscious SHR; for Duration: '24<' means greater than 24
Description: Systolic blood pressure was measured by the tail cuff method with electrophygmomanometer (PE-300, made by Narco Co.). Each derivative (3 mg/kg) was administered orally, suspended in 5% gum arabic solution.

[4] = tested on: rat (SHR), blood pressure and heart rate; test: Depressor response of trans- and cis-forms, dose-response intravenous, Tables 5 and 6; type: in vivo
Description: Male spontaneously hypertensive rats (SHR) which had mean arterial blood pressures higher than 140 mmHg were used for the experiments. Arterial blood pressure was measured through the catherized artery with a pressure transducer (MPU-0.5, manufactured by Nihon Kohden Kabushiki Kaisha). The catheter was inserted into the abdominal aorta via the median coccygcal artery of SHR under light ether anesthesia. The recordings were made on a rectigraph (manufactured by Sanei Sokki Kabushiki Kaisha). The 1,4-dihydropyridine derivatives prepared in the foregoing examples were administered with catheter which was inserted previously into the caudal vein or duodenum at least two hours after the operation. SHR were restrained with wire mesh cage immediately after the operation. […]

Molecule	The time to reach the lowest BP [1] [min]	ΔBP (Maximum depressor response) [1] [mmHg]	Duration [1] [min]	The time to reach the lowest BP [2] [min]	ΔBP (Maximum depressor response) [2] [mmHg]	Half-life [2] [h]	ΔBP After 1 hour [3] [mmHg]	ΔBP After 3 hours [3] [mmHg]	further results
COC(=O)C1=C(C)NC(C)=C(C(=O)OC(C=Cc2ccccc2)c2ccccc2)C1c1cccc([N+](=O)[O-])c1 (stereo not shown) [Example 27, 1,3-diphenyl-2-propenyl methyl 4-(3-nitrophenyl)-2,6-dimethyl-1,4-dihydropyridine-3,5-dicarboxylate]	56	45	> 240	170	82	> 4	-130	-113	
COC(=O)C1=C(C)NC(C)=C(C(=O)OCCC=Cc2cccs2)C1c1cccc([N+](=O)[O-])c1 (stereo not drawn) [Example 11, 4-α-thienyl-3-butenyl methyl 4-(3-nitrophenyl)-2,6-dimethyl-1,4-dihydropyridine-3,5-dicarboxylate]	1.6	60	100	200	25	4			
CC1=C(C(=O)OCC=CC=Cc2ccccc2)C(c2cccc([N+](=O)[O-])c2)C(C(=O)OC(C)C)=C(C)N1 (stereo not shown) [Example 61, Isopropyl 5-phenyl-2,4-pentadienyl 4-(3-nitrophenyl)-2,6-dimethyl-1,4-dihydropyridine-3,5-dicarboxylate]	7.0	85	> 90				-40	-100	
CCOC(=O)C1=C(C)NC(C)=C(C(=O)OCC=Cc2ccccc2)C1c1cccc([N+](=O)[O-])c1 (stereo not shown) [Example 15, Cinnamyl ethyl 4-(3-nitrophenyl)-2,6-dimethyl-1,4-dihydropyridine-3,5-dicarboxylate]				75	45	> 2		-35	Duration [3]: 7 to 24 h
COC(=O)C1=C(C)NC(C)=C(C(=O)OCCC=Cc2ccc3ccccc3c2)C1c1cccc([N+](=O)[O-])c1 (stereo not drawn) [Example 12, 4-β-naphthyl-3-butenyl methyl 4-(3-nitrophenyl)-2,6-dimethyl-1,4-dihydropyridine-3,5-dicarboxylate]							-30	-55	Duration [3]: > 24 h
COC(=O)C1=C(C)NC(C)=C(C(=O)OC/C=C\c2ccccc2)C1c1cccc([N+](=O)[O-])c1 (stereo not drawn) [Example 56, Methyl (Z)-3-phenyl-2-propenyl 4-(3-nitrophenyl)-2,6-dimethyl-1,4-dihydropyridine-3,5-dicarboxylate (cis)]	1.3	40.3							Depressure Response MaxΔBP ([4]; 10 μg/kg i.v.): 16.0 mmHg; Depressure Response Peak ([4]; 10 μg/kg i.v.): 1.2 min; MaxΔHR (Heart rates) ([4]; 10 μg/kg i.v.): 30.0 beats/min; T 1/2 (Halflife) ([4]; 10 μg/kg i.v.): 0.105 h; Depressure Response MaxΔBP ([4]; 30 μg/kg i.v.): 40.3 mmHg; Depressure Response Peak ([4]; 30 μg/kg i.v.): 1.3 min; MaxΔHR (Heart rates) ([4]; 30 μg/kg i.v.): 80.0 beats/min; T 1/2 (Halflife) ([4]; 30 μg/kg i.v.): 0.198 h; Depressure Response MaxΔBP ([4]; 100 μg/kg i.v.): 67.5 mmHg; Depressure Response Peak ([4]; 100 μg/kg i.v.): 1.8 min; MaxΔHR (Heart rates) ([4]; 100 μg/kg i.v.): 87.5 beats/min; T 1/2 (Halflife) ([4]; 100 μg/kg i.v.): 0.533 h; ED40 ([4]; Rattus norvegicus, intravenous, from regression line): 0.0299 mg/kg
COC(=O)C1=C(C)NC(C)=C(C(=O)OC(C)C=Cc2ccccc2)C1c1cccc([N+](=O)[O-])c1 (stereo not shown) [Example 30, 1-methyl-3-phenyl-2-propenyl methyl 4-(3-nitrophenyl)-2,6-dimethyl-1,4-dihydropyridine-3,5-dicarboxylate]	5.0	75	> 120	65	89	> 4			
COC(=O)C1=C(C)NC(C)=C(C(=O)OC(C)C=Cc2ccco2)C1c1cccc([N+](=O)[O-])c1 (stereo not shown) [Example 33, 1-methyl-3-furyl-3-propenyl methyl 4-(3-nitrophenyl)-2,6-dimethyl-1,4-dihydropyridine-3,5-dicarboxylate]	10.0	85	> 240	22	100	> 4			
COC(=O)C1=C(C)NC(C)=C(C(=O)OCCC=Cc2ccccc2)C1c1cccc([N+](=O)[O-])c1 (stereo not shown) [Example 4, 4-phenyl-3-butenyl methyl 4-(3-nitrophenyl)-2,6-dimethyl-1,4-dihydropyridine-3,5-dicarboxylate]	1.3	63.3	> 90	105	20	> 2.83			
C#CCOC(=O)C1=C(C)NC(C)=C(C(=O)OC)C1c1cccc([N+](=O)[O-])c1 (stereo not shown) [D, 4(3-nitrophenyl)-2,6-dimethyl-1,4-dihydropyridine-3,5-dicarboxylic aci 3methyl ester 5propargyl ester, reference compound]					0				
CC=CC=CCOC(=O)C1=C(C)NC(C)=C(C(=O)OC)C1c1cccc([N+](=O)[O-])c1 (stereo not shown) [Example 66, methyl 2,4-hexadienyl 4-(3-nitrophenyl)-2,6-dimethyl-1,4-dihydropyridine-3,5-dicarboxylate]	1.4	71.7	> 90	35	65	> 2			halflife (number in parentheses in Duration column) [1]: 0.722 h
4-(4-methoxyphenyl)-3-butenyl methyl 4-(3-nitrophenyl)-2,6-dimethyl-1,4-dihydropyridine-3,5-dicarboxylate [Example 18]				37	18	2			
COC(=O)C1=C(C)NC(C)=C(C(=O)OCCCc2ccccc2)C1c1cccc([N+](=O)[O-])c1 (stereo not shown) [E, 4(3-nitrophenyl)-2,6-dimethyl-1,4-dihydropyridine-3,5-dicarboxylic aci 3methyl ester 5(3-phenyl)-1-propyl ester, reference compound]					0				
1-methyl-3-thienyl-2-propenyl methyl 4-(3-nitrophenyl)-2,6-dimethyl-1,4-dihydropyridine-3,5-dicarboxylate [Example 36]	25.0	69	> 220	130	59	> 4			
COC(=O)C1=C(C)NC(C)=C(C(=O)OCC=CC=Cc2ccccc2)C1c1cccc([N+](=O)[O-])c1 (stereo not shown) [Example 16, 5-phenyl-2,4-pentadienyl methyl 4-(3-nitrophenyl)-2,6-dimethyl-1,4-dihydropyridine-3,5-dicarboxylate]				50	45	> 2	-55	-60	Duration [3]: > 24 h
COC(=O)C1=C(C)NC(C)=C(C(=O)OCCCC=Cc2ccccc2)C1c1cccc([N+](=O)[O-])c1 (stereo not shown) [Example 50, Methyl 5-phenyl-4-pentenyl 4-(3-nitrophenyl)-2,6-dimethyl-1,4-dihydropyridine-3,5-dicarboxylate]	2	64	> 90				-75		
CC1=C(C(=O)OCC=Cc2ccccc2)C(c2cccc([N+](=O)[O-])c2)C(C(=O)OCCOc2ccccc2)=C(C)N1 (stereo not shown) [Example 44, Cinnamyl 2-phenoxyethyl 4-(3-nitrophenyl)-2,6-dimethyl-1,4-dihydropyridine-3,5-dicarboxylate]	7	43					-30	-70	halflife (number in parentheses in Duration column) [1]: 0.75 h; Duration [3]: 7 to 24 h
